Where two headings read alike, the source gives them in different places.
Experiments:
[1] = test system: HEK 293 cells stably expressing human CD14 and TLR4/MD2; assay: LPS membrane binding in HEK-CD14-TLR4/MD2 cells; format: cell-based; conditions: 25 nM LPS, 1.5 h 37° C.; 0.5 μM PAC; antibodies 500 nM in binding sites
Method: (§1) Analysis of LPS membrane binding and endocytosis. Human embryonic kidney cells (HEK 293) stably expressing human CD14 and TLR4/MD2 (HEK-CD14-TLR4/MD2; Invivogen) were grown in chambered wells and incubated with 25 nM LPS (E. coli serotype O55:B5, Sigma) in the absence or presence of 0.5 μM LH20 PAC (Dial>6K) for 1.5 h at 37° C. […] After incubation, the cells were washed with PBS (10 min) twice and either fixed (with 3.7% paraformaldehyde) to assess LPS membrane binding or fixed and permeabilized (with 0.1% Triton X-100) to determine LPS internalization. After blocking with 1% normal goat serum, membrane bound or internalized LPS was detected using a goat anti-LPS antibody (O/K serotype-specific, Abcam) conjugated to fluorescein. Nuclei were counterstained with DAPI. Imaging was performed using an Olympus IX-71 microscope. The relative amounts of membrane-associated or intracellular fluorescence were quantified by image analysis using Image J software (NIH, v. 1.37). Data is reported as the mean channel fluorescence from membrane-associated or internalized LPS and represents the analysis of 10 to 20 cells from each sample (minimum 10 measurements per each cell). Merged images were produced using Photoshop CS2 (ver. 9).

[2] = test system: HEK 293 cells stably expressing human CD14 and TLR4/MD2; assay: LPS endocytosis (internalization) in HEK-CD14-TLR4/MD2 cells; format: cell-based; conditions: 25 nM LPS, 1.5 h 37° C.; 0.5 μM PAC; antibodies 500 nM in binding sites
Method: as §1

HEK-CD14-TLR4/MD2 cells = assay: Cytotoxicity, CellTiter96 cell proliferation assay; format: cell-based, human; conditions: 48 h culture
Method: Cytotoxicity assays—Cellular toxicity was measured using a calorimetric cell proliferation assay (CellTiter96™, Promega). HEK-CD14-TLR4/MD2 cells were seeded into the wells of a 96-well plate (1×10^4 cells/well) and cultured with a dose range of test compounds for 48 h prior to assay according to the manufacturer's instructions.

[3] = test system: FITC-labeled LPS (from E. coli 055:B5); assay: Fluorescence-based pull down assay of FITC-LPS with Sepharose-immobilized PACs; format: binding, Escherichia coli; conditions: for IC50: PAC beads equilibrated with lipid A, 3 μg/mL FITC-LPS (approx. 3 nM)
Method: PAC and catechin immobilization—Purified PACs and catechin (Sigma-Aldrich) were immobilized onto activated thiol-Sepharose® 4B (Sigma-Aldrich) via a (N-[p-maleimidophenyl]isocyanate) (PMPI; Pierce) crosslinker. Sepharose® was swelled in deionized water for 1 hour (1 g dry material in 15 mL H2O). The material was then washed using fresh dI-H2O over five suspend/centrifuge/decant cycles (total 50 mL per gram dry starting material). Suspension was accomplished using a vortex and centrifuge steps were conducted at 3,000 g for five minutes. The Sepharose® material (total volume 5 mL per gram starting material) was then rinsed three times with ethanol (total volume 30 mL per gram starting material). The PMPI crosslinker was incubated with the rinsed Sepharose material for 1 hour at room temperature under constant agitation using a 10-fold molar excess of PMPI over the thiol-group concentration with 3% dimethylsulfoxide in ethanol (10 mL per gram starting material). Incubation was followed by centrifuging, decanting, and rinsing in 50% ethanol for three cycles. The Sepharose was then incubated overnight at 4° C. in ethanol with PAC or catechin using a 10-fold molar excess of analyte in 50% ethanol (10 mL per gram starting material). As a final step, the Sepharose was rinsed over four cycles using 50% ethanol (40 mL total per gram starting material) and resuspended in 0.02% sodium azide in H2O (16 mL final volume per gram starting material). The materials were stored in the dark at 4° C. until use. PAC concentrations for bead sets were determined by Prussian blue assay.
Fluorescence-based pull down assays for lipopolysaccharide (LPS) were conducted in 50 mM TRIS at pH 8.0 using Sepharose-immobilized PACs and agarose-immobilized polymyxin B (Sigma-Aldrich, St. Louis, Mo.). […] The fluorescence of the FITC-labeled LPS (from E. coli 055:B5; Sigma-Aldrich) was measured using a Tecan XSafire monochrometer-based micro plate reader at 495 nm excitation and 520 nm emission (5 nm bandwidths). […]

[4] = test system: LPS-FITC (E. coli 055:B5); assay: LPS-FITC binding by PACs immobilized on glass waveguide (stationary assay); parameters: species or system Escherichia coli; conditions: patterned at 10 mg/mL via PMPI; LPS-FITC 1 hour
Text: Immobilization of PACs and LPS binding assay—To determine the ability of PAC materials to effectively bind bacteria and bacterial cell components upon immobilization to a solid support, PACs from cranberry and grape juices were covalently attached to the surface of a glass microscope slide (waveguide) using a modification of a common technique used for protein immobilization (Rowe et al., Anal. Chem., 71, 3846 (1999)). Catechin monomer and buffer only areas were also included as controls. Briefly, the waveguides, glass microscope slides (Daigger, Wheeling, Ill.), were cleaned by immersion in potassium hydroxide/methanol solution (Cras et al., Biosens. Bioelectron., 14, 683 (1999)) followed by rinsing and drying. The clean waveguides were then incubated with 2% (3-mercaptopropyl)triethoxysilane (Pierce Chemicals, Rockford, Ill.) in toluene for 45 minutes followed by rinsing and drying. The slides were immersed in 1.8 mM N-[p-maleimidophenyl]isocyanate (PMPI) in ethanol for 1 hour. The maleimide-group of PMPI reacts with the sulfhydryl-group provided by the silane reaction leaving the isocyanate-group free to react with the hydroxyl-groups of PACs. […] Slides were imaged using evanescent wave fluorescence spectroscopy with excitation at 496 nm and emission collected above 515 nm. […]

In the case of diphosphoryl lipid A, the “decrease in membrane-bound LPS (LPS binding inhibition)” value [1] is reported as “did not significantly reduce LPS membrane binding”, the “inhibition of LPS endocytosis” value [2] is reported as 84% and the “concentrations at which no toxicity was elicited” value (HEK-CD14-TLR4/MD2 cells) is reported as “below 3 μM”. For the same substance, the IC50 ([3]; read-out: IC50, inhibition of FITC-LPS binding by immobilized PACs from cranberries) was 500 nM, the IC50 ([3]; read-out: IC50, inhibition of FITC-LPS binding by immobilized PACs from tea) was 100 nM and the “inhibition of FITC-LPS binding by immobilized PACs at high lipid A concentration” value ([3]; lipid A concentrations as high as 100 μM) was ≤ 80%.

catechin was tested, and the “binding of LPS-FITC by material immobilized on waveguide” value [4] was “no binding even at the highest concentrations tested”.

From patent US9040250B2, “Binding interaction of proanthocyanidins with bacteria and bacterial components” (The United States of America, as represented by the …, priority 2006, dated 2015)
